For data set [1] the following is noted: when used alone; cited from earlier work.
Experiment in data set [2]: not given
This is another data set of the same source.

Data set [3] in a line: Example 2: two siblings given digoxin daily. The data set is classed as in vivo, human. As to conditions: for improvement in pain levels and functionality: both patients. As to the method: Two siblings with severe rheumatoid arthritis characterized by progressive pain, stiffness and swelling of joints in spite of treatment with NSAIDs, narcotics, and immunosuppressants were given 0.125 mg of digoxin daily. No response was noted until the 5th day of treatment at which time both patients reported about a 10% improvement in pain levels and functionality, 2 weeks later the dose of digoxin was doubled to 0.25 mg and the patients both noted a proportional improvement in pain levels and functionality to 20%.

Molecules are shown by their SMILES.

In the case of `CN(Cc1cnc2nc(N)nc(N)c2n1)c1ccc(C(=O)N[C@@H](CCC(=O)O)C(=O)O)cc1` [Methotrexate], the “effectiveness of prior therapy” value (Methotrexate 5-10 mg q week with calcipotriene, phototherapy and NSAIDs, prior 4 months) is on record as “moderately effective”.
In the case of `C[C@H]1O[C@@H](O[C@H]2[C@@H](O)C[C@H](O[C@H]3[C@@H](O)C[C@H](O[C@H]4CC[C@@]5(C)[C@H](CC[C@@H]6[C@@H]5C[C@@H](O)[C@]5(C)[C@@H](C7=CC(=O)OC7)CC[C@]65O)C4)O[C@@H]3C)O[C@@H]2C)C[C@H](O)[C@@H]1O` [digoxin, 4-[(3S,5R,8R,9S,10S,12R,13S,14S,)-3-[(2S,4S,5R,6R)-5-[(2S,4S,5R,6R)-5-[(2S,4S,5R,6R)-4,5-dihydroxy-6-methyl-oxan-2-yl]oxy-4-hydroxy-6-methyl-oxan-2-yl]oxy-4-hydroxy-6-methyl-oxan-2-yl]oxy-12,14-dihydroxy-10,13-dimethyl-1,2,3,4,5,6,7,8,9,11,12,15,16,17-tetradecahydrocyclopenta[a]phenanthren-17-yl]-5H-furan-2-one], the “plasma digoxin concentration at which adverse reactions are rare” value in data set [1] is under 0.8 µg/L. For the same compound, the “regression of wound area” value in data set [2] (0.125 mg of digoxin, within 3 days) was “about 20%”. Also, the “improvement in pain levels and functionality” value in data set [3] (0.125 mg of digoxin daily, 5th day of treatment) is reported as about 10%; in data set [3] (dose doubled to 0.25 mg 2 weeks later) it was 20%. For the same compound, the side effects result in data set [3] (digoxin 0.125 mg then 0.25 mg) is listed as “No side effects”. Moreover, for the setting “for one month, next monthly visit”, the joint pain entry was “abated”. Moreover, the “psoriasis at follow up” value (remained on 0.125 mg of digoxin, 2 months later, elbows and ankles, with return of joint pain) is recorded as “mild recrudescence”.
As to `OC(Cn1cncn1)(Cn1cncn1)c1ccc(F)cc1F` [fluconazole], in data set [2] (1 week of treatment, before digoxin), the “change in the affected area” value is given as “no change”.
